The test system of series [1] is basal gastric acid secretion. As to the kind of experiment: Inhibition of total acid output in the acute gastric fistula rat. Particulars: for ED50: Rattus norvegicus. The series is classed as in vivo, Female Sprague-Dawley rats. The procedure: The compounds of this invention are also useful as inhibitors of gastric acid secretion and peptic ulcer formation and may be used for the treatment of gastric hyperacidity, gastric erosion, and peptic ulcer. Inhibition of basal gastric acid secretion can be determined by the following procedure.
Female Sprague-Dawley rats weighting 140-160 grams are fasted in individual cages for 18-24 hours. The rats are then lightly anesthetized with ether and their front teeth extracted to avoid destruction of the plastic cannula. A midline incision is then made and the stomach and duodenum exposed. A flanged polyvinyl tube is inserted into the fundic portion of the stomach and secured with a purse string suture line using 4-O Mersilene. The rat is then dosed by injection of the compound into the duodenum (1.0 ml. per 100 gram body weight). After dosing, the abdominal wall and skin are closed using metal wound clips. The rate is replaced in a cage containing a longitudinal slit to allow the polyvinyl tube to hang freely. An 8 ml. plastic collecting tube is attached to the flanged cannula and hangs freely below the cage. The first 30 minute sample is discarded designating this time as zero. The collecting tube is attached again and samples removed at the end of 60 and 120 minutes. These samples are referred to as "A" and "B" in the table. The hourly samples are then transferred to a 15 ml. centrifuge and centrifuged for 5-10 minutes. Total and sediment volume are then recorded with the supernatent volume being used as volume of secretion. A 1 ml. or less aliquot is then removed and placed in a 50 ml. beaker containing 10 ml. of distilled water. This sample is then titrated using 0.01N NaOH to pH 7.0 using a Beckman zeromatic pH meter. Volume, titratable acidity (meg.L) and total acid output (μeg/hour) are recorded. Percent inhibition is determined by comparison with the appropriate control. Groups of three rats were used for preliminary testing, and groups of six rats were used for dose-response evaluations. All compounds are administered in a vehicle consisting of 0.5% methocel, 0.4% tween 80, and saline at a constant volume of 1 ml./100 gram rat. Samples are dispersed by sonification. Percent inhibition is calculated on basis of concurrent vehicle control.
In Table B which follows is given the effect on total acid output after 120 minutes of a 10 mg./kg. dose of representative ketals of this invention. For comparison the result obtained with the corresponding 9-oxo derivative, l 9-oxo-15(S)-hydroxyprostanoic acid is included.
Dose response evaluation in the acute gastric fistual rat assay further illustrates the pronounced advantage of the novel ketals of this invention as gastric acid secretion inhibitors relative to the corresponding 9-oxo derivative.

In series [2] the test system is bronchospasms elicited by intravenous injections of 5-hydroxytryptamine. As to the kind of experiment: Bronchodilator activity (Konzett assay, intravenous) against 5-hydroxytryptamine. The settings on record: Cavia porcellus, guinea pig, spasmogen 5-hydroxytryptamine, read-out: Bronchodilator Activity (Konzett Assays) ED50, 5-hydroxytryptamine. It is filed as in vivo, guinea pigs. The procedure: (§1) The compounds of this invention are useful as bronchodilators for the treatment of asthma and chronic bronchitis. Bronchodilator activity is determined in guinea pigs against bronchospasms elicited by intravenous injections of 5-hydroxytryptamine, histamine or acetylcholine by the Konzett procedure. [See J. Lulling, P. Lievens, F. El Sayed and J. Prignot, Arzneimittel-Forschung, 18, 995 (1968).]
(§2) In Table A which follows bronchodilator activity for representative compounds of this invention against one or more of three spasmogenic agents is expressed as an ED50 determined from the results obtained with three logarithmic cumulative intravenous doses.

The test system of series [3] is bronchospasms elicited by intravenous injections of acetylcholine. Description: Bronchodilator activity (Konzett assay, intravenous) against acetylcholine. It is filed as in vivo, guinea pigs. The settings on record: Cavia porcellus, guinea pig, spasmogen acetylcholine, read-out: Bronchodilator Activity (Konzett Assays) ED50, acetylcholine. As for the experimental part:
as §1, §2

The subject of series [4] is bronchospasms elicited by histamine. As to the kind of experiment: Bronchodilator activity (intraduodenal route) against histamine. It is filed as in vivo, guinea pigs. The settings on record: intraduodenal dose 10 mg./kg. More on the design: key: 0: no activity; +: minimal activity; ++++: maximum activity. The procedure:
as §1
(§3) In Table A' which follows bronchodilator activity for representative compounds of this invention against one or more of three spasmogenic agents is reported. In this assay candidate compounds are suspended in 10% gum arabic solution and the suspension is administered by the intraduodenal route. The activity of the compound at any one dose is then investigated throughout the following hour (see above-cited reference, J. Lulling et al.). Potency is then reported as O, +, ++, +++, or ++++, wherein 0 represents no activity, + minimal activity and ++++ maximum activity.

Series [5] relates to bronchospasms elicited by 5-hydroxytryptamine. As to the kind of experiment: Bronchodilator activity (intraduodenal route) against 5-hydroxytryptamine. It is filed as in vivo, guinea pigs. More on the design: key: 0: no activity; +: minimal activity; ++++: maximum activity. The procedure: as §1, §3
The test system of the next series is gastric acid secretion. As to the kind of experiment: Gastric acid secretion inhibition, Shay-rat procedure. The series is classed as in vivo, rats (male, CFE strain). The settings on record: intraduodenal dose 100 mg./kg. of body weight. The procedure:
Gastric acid secretion inhibition can also be observed in an assay wherein acid secretion is stimulated as in the well-known "Shay-rat" procedure, which is carried out in the following manner.
The rats (male, CFE strain) were starved for 48 hours (water was given ad libitum) to permit evacuation of stomach contents. On the morning of the experiment, under ether anesthesia, the abdominal region was shaved and a midline incision (1-11/2 inch) was made with a scapel. With the help of a closed curved hemostat the duodenum was picked up. […]
The abdominal cavity was exposed by cutting with scissors and the esophagus close to the stomach was clamped off with a hemostat, the stomach was removed by cutting above the hemostat (the esophagus was cut) and between the two sutures. […] The supernatant was collected, volume measured and recorded, 2 drops of a phenolphthalein indicator (1% in 95% ethanol) were added and the solution was tritrated with 0.02N NaOH (or with 0.04N NaOH when large volumes of stomach contents were encountered) to pH 8.4 (because of usual coloring of the stomach contents, phenolphthalein was only used to permit visual indication that the end point was near) and the amount of acid present was calculated. […]

For series [6], the system named is bronchoconstriction induced by administration of pilocarpine. Description: Bronchodilator activity by aerosol in dogs. The series is classed as in vivo. The settings on record: aerosol concentration 0.032%. The procedure: (§4) The novel ketals of this invention also show bronchodilator activity when administered by aerosol to dogs wherein bronchoconstriction was induced by administration of pilocarpine. […] This is very important since coughing is one of the damaging side effects reported in the literature when prostaglandin aerosols are administered to human subjects. [See Y. Kawakami et al., European Journal Clinical Pharmacology, 6, 127 (1973); M. F. Cuthbert, Brit. Med. Journ. 723 (Dec. 20, 1969); H. Herxheimer and I. Roetscher, European Journal Clinical Pharmacology, 3, 123 (1971).]

The test system of a further series is cough. Description: Cough induction by aerosol in human. The series is classed as in vivo. As for the experimental part: as §4
The mark [7] stands for this setting: 2 h, 10 mg./kg., intraduodenal route, rat, read-out: %-Inhibition of Total Acid Output After 120 Minutes.
Where [8] appears, read: Table C, intraduodenal route, 1 hr. collection, read-out: ED50, 1 hr. collection (A).
Setting [9] is: Table C, intraduodenal route, 2 hr. collection, read-out: ED50, 2 hr. collection (B).

Like-named read-outs stand apart in the source and are kept apart here. A value given as a limit tells only on which side of the number the result lay.

The text below walks through data of US4017534A, “16-Fluoro-11-deoxy-13-dihydro-prostaglandin” (American Cyanamid Company, priority 1975, dated 1977).

One may read the ED50 as the midpoint of the dose-response relation.

As for “l methyl 9,9-(2,2-dimethyl-1,3-propylenedioxy)-15(S)-acetoxy-prostenoate”, the “%-Inhibition of Total Acid Output After 120 Minutes” value in series [1] (10 mg./kg., intraduodenal route, rat) stood at 27%.

Take `CCCCC[C@H](O)CC[C@H]1CCC2(OCC(C)O2)[C@@H]1CCCCCCC(=O)O` (stereo partly drawn) [l-15(S)-hydroxy-9,9-(1-methylethylenedioxy)-prostanoic acid]: the inhibition in vivo at 10 mg/kg in series [1] (setting [7]) came out at 61%. Also, the ED50 is 0.000104 mg/kg in series [2] and 0.000644 mg/kg in series [3].

With `CCCCC[C@@H](CC[C@H]1CCC2(SCCS2)[C@@H]1CCCCCCC(=O)OC)OC(C)=O` [l methyl 9,9-ethylenedithia-15(S)-acetoxy-prostanoate], the inhibition in vivo at 10 mg/kg in series [1] (setting [7]) was determined as 32%.

As for `CCCCC[C@@H](CC[C@H]1CCC2(OCCCO2)[C@@H]1CCCCCCC(=O)OC)OC(C)=O` [l methyl 9,9-(1,3-propylenedioxy)-15(S)-acetoxy-prostanoate], the inhibition in vivo at 10 mg/kg in series [1] (setting [7]) is 60%. Also, the ED50 in series [1] (setting [8]) and in series [1] (setting [9]) was 6 mg/kg in each case. Moreover, the “Bronchodilator potency, Spasmogenic Agent Histamine” value in series [4] is on record as “+”.

Take `CCCCC[C@@H](CC[C@H]1CCC2(OC(C)C(C)O2)[C@@H]1CCCCCCC(=O)OC)OC(C)=O` (stereo partly drawn) [l methyl 9,9-(1,2-dimethylethylenedioxy)-15(S)-acetoxyprostanoate]: the inhibition in vivo at 10 mg/kg in series [1] (setting [7]) came to 74%. The ED50 in series [1] (setting [8]) and in series [1] (setting [9]) was 7 mg/kg in each case.

For the molecule `CCCCC[C@H](O)CC[C@H]1CCC2(OC(C)C(C)O2)[C@@H]1CCCCCCC(=O)O` (stereo partly drawn) [l-9,9-(1,2-dimethylethylenedioxy)-15(S)-hydroxy-prostanoic acid], the inhibition in vivo at 10 mg/kg in series [1] (setting [7]) amounted to 57%. In addition, the values for the ED50 in series [1] (setting [8]) and in series [1] (setting [9]) were less than 8 mg/kg and 8 mg/kg, respectively. Moreover, the “Bronchodilator potency, Spasmogenic Agent Histamine” value in series [4] is “+”.

Turning to `CCCCC[C@@H](CC[C@H]1CCC2(OCC(CCl)O2)[C@@H]1CCCCCCC(=O)OC)OC(C)=O` (stereo partly drawn) [l methyl-9,9-(1-chloromethylethylenedioxy)-15(S)-acetoxy-prostanoate], the inhibition in vivo at 10 mg/kg in series [1] (setting [7]) was found to be 26%. Further, the “Bronchodilator potency, Spasmogenic Agent Histamine” value in series [4] is reported as “+”.

As for `CCCCC[C@@H](CC[C@H]1CCC2(OCC(C)O2)[C@@H]1CCCCCCC(=O)OC)OC(C)=O` (stereo partly drawn) [l methyl 9,9-(1-methylethylenedioxy)-15(S)-acetoxyprostanoate], the “Bronchodilator potency, Spasmogenic Agent 5-Hydroxytryptamine” value in series [5] (intraduodenal dose 10 mg./kg.) was “+”.

`CCCCC[C@H](O)CC[C@H]1CCC2(OCC(C)(C)CO2)[C@@H]1CCCCCCC(=O)O` [9,9-(2,2-dimethylpropylenedioxy)-15(S)-hydroxy-prostanoic acid]: in series [1] (setting [7]), the inhibition in vivo at 10 mg/kg was 32%. Also, the “Bronchodilator potency, Spasmogenic Agent Histamine” value in series [4] is reported as “+”. In addition, in series [5] (intraduodenal dose 10 mg./kg.), the “Bronchodilator potency, Spasmogenic Agent 5-Hydroxytryptamine” value is on record as “+”.

For the molecule `CCCCCC(O)CCC1CCC2(OCCO2)C1CCCCCCC(=O)O` (racemic) [9,9-(ethylenedioxy)-15-hydroxy-prostanoic acid], the “Percent Inhibition (gastric acid secretion, Shay rat)” value in the series on gastric acid secretion is 56%.

On to `CCCCC[C@H](O)CC[C@H]1CCC2(OCC(CCl)O2)[C@@H]1CCCCCCC(=O)O` (stereo partly drawn) [l-9,9-(1-chloromethylethylenedioxy)-15(S)-hydroxy-prostanoic acid], for which the inhibition in vivo at 10 mg/kg in series [1] (setting [7]) stood at 99%. The ED50 in series [1] (setting [8]) and in series [1] (setting [9]) was 6 mg/kg each time. Besides, in series [5] (intraduodenal dose 3.2 mg./kg.), the “Bronchodilator potency, Spasmogenic Agent 5-Hydroxytryptamine” value is given as “++++”.

Regarding `CCCCC[C@H](O)CC[C@H]1CCC2(OCCS2)[C@@H]1CCCCCCC(=O)O` (stereo partly drawn) [l-9,9-(ethyleneoxythia)-15(S)-hydroxy-prostanoic acid], the inhibition in vivo at 10 mg/kg in series [1] (setting [7]) amounted to 39%. Further, in series [4], the “Bronchodilator potency, Spasmogenic Agent Histamine” value is “+”.

Regarding `CCCCC[C@H](O)CC[C@H]1CCC(=O)[C@@H]1CCCCCCC(=O)O` [l 9-oxo-15(S)-hydroxyprostanoic acid, 1-15(S)-hydroxy-9-oxo-prostanoic acid, reference compound], the “bronchodilator activity by aerosol” value in series [6] is “very weak”. Besides, the inhibition in vivo at 12.5 mg/kg in series [1] (2 h, 12.5 mg./kg. dose, intraduodenal route, rat, read-out: %-Inhibition of Total Acid Output After 120 Minutes) was 27%. In addition, the results for the ED50 in series [1] (setting [8]) and in series [1] (setting [9]) were 18 mg/kg and greater than 25 mg/kg, respectively. Also, the “potency relative to the ketals” value in series [1] (total acid output, Table B) is “significantly less potent than the ketals”. In the series on cough, the “induction of cough by aerosol” value was “ketone aerosol does”.

For the molecule `CCCCC[C@@H](CC[C@H]1CCC2(OCCO2)[C@@H]1CCCCCCC(=O)OC)OC(C)=O` [l methyl 9,9-ethylenedioxy-15(S)-acetoxy-prostanoate], the inhibition in vivo at 10 mg/kg in series [1] (setting [7]) was found to be 100%. For the same molecule, the ED50 was found to be 3 mg/kg in series [1] (2 h, Table B, intraduodenal route, after 120 minutes, read-out: ED50 (inhibition of total acid output)) and 3 mg/kg in series [1] (setting [9]).
